The text below walks through data of US20240124417A1, “COMPOUNDS USEFUL AS IMMUNOMODULATORS” (Bristol-Myers Squibb Company, priority 2019, published 2024).

For orientation: IC50 means the point on the concentration scale where inhibition reaches its midpoint. Read a low IC50 as greater potency in that assay.

The target of the assay is T1, PD-1/PD-L1 (Homo sapiens, UniProt Q9NZQ7).
T1 construct: TVMV protease site linker (C); made in house; host or cells: HEK293T cells
Nature of the assay: PD-1/PD-L1 Homogenous Time-Resolved Fluorescence (HTRF) binding assay. The following applies: PD-L1-His 10 nM, PD-1-Ig 20 nM. In outline:
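Time-resolved FRET read-out using Eu-cryptate anti-Ig (1 nM final) and APC anti-His (20 nM final). Tagged extracellular domains were used in BSA/Tween-20-supplemented dPBS, with compound pre-incubated 15 min with PD-L1-His (10 nM) before PD-1-Ig (20 nM) was added for 15 min. Other human pairs: PD-L2-His 5 nM with PD-1-Ig 20 nM; PD-L1-Ig 10 nM with CD80-His 100 nM.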
A general note: TR-FRET usually uses a lanthanide donor and a delayed reading to cut background.

T1 sequence (Q9NZQ7 18-239): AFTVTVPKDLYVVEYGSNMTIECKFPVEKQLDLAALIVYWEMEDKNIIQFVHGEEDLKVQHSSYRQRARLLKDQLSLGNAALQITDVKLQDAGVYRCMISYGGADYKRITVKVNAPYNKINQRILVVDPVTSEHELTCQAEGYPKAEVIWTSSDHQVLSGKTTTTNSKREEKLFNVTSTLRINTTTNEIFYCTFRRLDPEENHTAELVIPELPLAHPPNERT

Turning to `Cc1cc(CN(C)Cc2cc(Cl)c(OCc3cccc(-c4cccc(OCCCN5CC[C@@H](O)C5)c4C)c3C)cc2OCc2cncc(C#N)c2)no1` [Example 2529, (R)-5-((4-chloro-5-((3′-(3-(3-hydroxypyrrolidin-1-yl)propoxy)-2,2′-dimethyl-[1,1′-biphenyl]-3-yl)methoxy)-2-((methyl((5-methylisoxazol-3-yl)methyl)amino)methyl)phenoxy)methyl)nicotinonitrile], the IC50 came out at 1.1 nM.

In the case of `Cc1c(COc2cc(OCc3cncc(C#N)c3)c(CNCc3nccs3)cc2Cl)cccc1-c1cccc(OCCCN2CC[C@@H](O)C2)c1C` [Example 2530, (R)-5-((4-chloro-5-((3′-(3-(3-hydroxypyrrolidin-1-yl)propoxy)-2,2′-dimethyl-[1,1′-biphenyl]-3-yl)methoxy)-2-(((thiazol-2-ylmethyl)amino)methyl)phenoxy)methyl)nicotinonitrile], the IC50 is 6.2 nM. Compound `Cc1c(COc2cc(OCc3cncc(C#N)c3)c(CNCc3cncs3)cc2Cl)cccc1-c1cccc(OCCCN2CC[C@@H](O)C2)c1C` [Example 2531, (R)-5-((4-chloro-5-((3′-(3-(3-hydroxypyrrolidin-1-yl)propoxy)-2,2′-dimethyl-[1,1′-biphenyl]-3-yl)methoxy)-2-(((thiazol-5-ylmethyl)amino)methyl)phenoxy)methyl)nicotinonitrile] had an IC50 of 3.4 nM. The value for `Cc1c(COc2cc(OCc3cncc(C#N)c3)c(CNCCc3c[nH]cn3)cc2Cl)cccc1-c1cccc(OCCCN2CC[C@@H](O)C2)c1C` [Example 2532, (R)-5-((2-(((2-(1H-imidazol-4-yl)ethyl)amino)methyl)-4-chloro-5-((3′-(3-(3-hydroxypyrrolidin-1-yl)propoxy)-2,2′-dimethyl-[1,1′-biphenyl]-3-yl)methoxy)phenoxy)methyl)nicotinonitrile] was 4.8 nM. To `Cc1c(COc2cc(OCc3cncc(C#N)c3)c(CN(C)Cc3nccs3)cc2Cl)cccc1-c1cccc(OCCCN2CC[C@@H](O)C2)c1C` [Example 2533, (R)-5-((4-chloro-5-((3′-(3-(3-hydroxypyrrolidin-1-yl)propoxy)-2,2′-dimethyl-[1,1′-biphenyl]-3-yl)methoxy)-2-((methyl(thiazol-2-ylmethyl)amino)methyl)phenoxy)methyl)nicotinonitrile] belongs 2.7 nM; to `Cc1c(COc2cc(OCc3cncc(C#N)c3)c(CN(C)Cc3cncs3)cc2Cl)cccc1-c1cccc(OCCCN2CC[C@@H](O)C2)c1C` [Example 2534, (R)-5-((4-chloro-5-((3′-(3-(3-hydroxypyrrolidin-1-yl)propoxy)-2,2′-dimethyl-[1,1′-biphenyl]-3-yl)methoxy)-2-((methyl(thiazol-5-ylmethyl)amino)methyl)phenoxy)methyl)nicotinonitrile], 3.4 nM; to `Cc1c(COc2cc(OCc3cncc(C#N)c3)c(CN(C)CCc3c[nH]cn3)cc2Cl)cccc1-c1cccc(OCCCN2CC[C@@H](O)C2)c1C` [Example 2535, (R)-5-((2-(((2-(1H-imidazol-4-yl)ethyl)(methyl)amino)methyl)-4-chloro-5-((3′-(3-(3-hydroxypyrrolidin-1-yl)propoxy)-2,2′-dimethyl-[1,1′-biphenyl]-3-yl)methoxy)phenoxy)methyl)nicotinonitrile], 3.9 nM. Consider `Cc1c(COc2cc(OCc3cncc(C#N)c3)c(CNCc3cc(C)n(C)n3)cc2Cl)cccc1-c1cccc(OCCCN2CC[C@@H](O)C2)c1C` [Example 2536, (R)-5-((4-chloro-2-((((1,5-dimethyl-1H-pyrazol-3-yl)methyl)amino)methyl)-5-((3′-(3-(3-hydroxypyrrolidin-1-yl)propoxy)-2,2′-dimethyl-[1,1′-biphenyl]-3-yl)methoxy)phenoxy)methyl)nicotinonitrile], for which the IC50 came out at 7.4 nM. To `Cc1c(COc2cc(OCc3cncc(C#N)c3)c(CNCc3cc4ccccn4n3)cc2Cl)cccc1-c1cccc(OCCCN2CC[C@@H](O)C2)c1C` [Example 2537, (R)-5-((4-chloro-5-((3′-(3-(3-hydroxypyrrolidin-1-yl)propoxy)-2,2′-dimethyl-[1,1′-biphenyl]-3-yl)methoxy)-2-(((pyrazolo[1,5-a]pyridin-2-ylmethyl)amino)methyl)phenoxy)methyl)nicotinonitrile] belongs 6.5 nM; to `Cc1c(COc2cc(OCc3cncc(C#N)c3)c(CNCc3cc(-c4ccccc4)on3)cc2Cl)cccc1-c1cccc(OCCCN2CC[C@@H](O)C2)c1C` [Example 2538, (R)-5-((4-chloro-5-((3′-(3-(3-hydroxypyrrolidin-1-yl)propoxy)-2,2′-dimethyl-[1,1′-biphenyl]-3-yl)methoxy)-2-((((5-phenylisoxazol-3-yl)methyl)amino)methyl)phenoxy)methyl)nicotinonitrile], 43.8 nM; to `Cc1c(COc2cc(OCc3cncc(C#N)c3)c(CNCc3cocn3)cc2Cl)cccc1-c1cccc(OCCCN2CC[C@@H](O)C2)c1C` [Example 2539, (R)-5-((4-chloro-5-((3′-(3-(3-hydroxypyrrolidin-1-yl)propoxy)-2,2′-dimethyl-[1,1′-biphenyl]-3-yl)methoxy)-2-(((oxazol-4-ylmethyl)amino)methyl)phenoxy)methyl)nicotinonitrile], 0.7 nM.

Turning to `Cc1nc(CNCc2cc(Cl)c(OCc3cccc(-c4cccc(OCCCN5CC[C@@H](O)C5)c4C)c3C)cc2OCc2cncc(C#N)c2)no1` [Example 2540, (R)-5-((4-chloro-5-((3′-(3-(3-hydroxypyrrolidin-1-yl)propoxy)-2,2′-dimethyl-[1,1′-biphenyl]-3-yl)methoxy)-2-((((5-methyl-1,2,4-oxadiazol-3-yl)methyl)amino)methyl)phenoxy)methyl)nicotinonitrile], the IC50 turned out to be 3.1 nM. The value for `Cc1c(COc2cc(OCc3cncc(C#N)c3)c(CN(C)Cc3cc(C)n(C)n3)cc2Cl)cccc1-c1cccc(OCCCN2CC[C@@H](O)C2)c1C` [Example 2541, (R)-5-((4-chloro-2-((((1,5-dimethyl-1H-pyrazol-3-yl)methyl)(methyl)amino)methyl)-5-((3′-(3-(3-hydroxypyrrolidin-1-yl)propoxy)-2,2′-dimethyl-[1,1′-biphenyl]-3-yl)methoxy)phenoxy)methyl)nicotinonitrile] was 3.9 nM; that for `Cc1c(COc2cc(OCc3cncc(C#N)c3)c(CN(C)Cc3cc4ccccn4n3)cc2Cl)cccc1-c1cccc(OCCCN2CC[C@@H](O)C2)c1C` [Example 2542, (R)-5-((4-chloro-5-((3′-(3-(3-hydroxypyrrolidin-1-yl)propoxy)-2,2′-dimethyl-[1,1′-biphenyl]-3-yl)methoxy)-2-((methyl(pyrazolo[1,5-a]pyridin-2-ylmethyl)amino)methyl)phenoxy)methyl)nicotinonitrile] was 3.9 nM.

Compound `Cc1c(COc2cc(OCc3cncc(C#N)c3)c(CN(C)Cc3cc(-c4ccccc4)on3)cc2Cl)cccc1-c1cccc(OCCCN2CC[C@@H](O)C2)c1C` [Example 2543, (R)-5-((4-chloro-5-((3′-(3-(3-hydroxypyrrolidin-1-yl)propoxy)-2,2′-dimethyl-[1,1′-biphenyl]-3-yl)methoxy)-2-((methyl((5-phenylisoxazol-3-yl)methyl)amino)methyl)phenoxy)methyl)nicotinonitrile] came in with an IC50 of 192 nM. To `Cc1c(COc2cc(OCc3cncc(C#N)c3)c(CN(C)Cc3cocn3)cc2Cl)cccc1-c1cccc(OCCCN2CC[C@@H](O)C2)c1C` [Example 2544, (R)-5-((4-chloro-5-((3′-(3-(3-hydroxypyrrolidin-1-yl)propoxy)-2,2′-dimethyl-[1,1′-biphenyl]-3-yl)methoxy)-2-((methyl(oxazol-4-ylmethyl)amino)methyl)phenoxy)methyl)nicotinonitrile] belongs 1.6 nM; to `Cc1nc(CN(C)Cc2cc(Cl)c(OCc3cccc(-c4cccc(OCCCN5CC[C@@H](O)C5)c4C)c3C)cc2OCc2cncc(C#N)c2)no1` [Example 2545, (R)-5-((4-chloro-5-((3′-(3-(3-hydroxypyrrolidin-1-yl)propoxy)-2,2′-dimethyl-[1,1′-biphenyl]-3-yl)methoxy)-2-((methyl((5-methyl-1,2,4-oxadiazol-3-yl)methyl)amino)methyl)phenoxy)methyl)nicotinonitrile], 11.9 nM. Turning to `Cc1c(COc2cc(OCc3cncc(C#N)c3)c(CNCc3ncco3)cc2Cl)cccc1-c1cccc(OCCCN2CC[C@@H](O)C2)c1C` [Example 2546, (R)-5-((4-chloro-5-((3′-(3-(3-hydroxypyrrolidin-1-yl)propoxy)-2,2′-dimethyl-[1,1′-biphenyl]-3-yl)methoxy)-2-(((oxazol-2-ylmethyl)amino)methyl)phenoxy)methyl)nicotinonitrile], the IC50 is 1.8 nM. The value for `Cc1c(COc2cc(OCc3cncc(C#N)c3)c(CNCc3cnco3)cc2Cl)cccc1-c1cccc(OCCCN2CC[C@@H](O)C2)c1C` [Example 2547, (R)-5-((4-chloro-5-((3′-(3-(3-hydroxypyrrolidin-1-yl)propoxy)-2,2′-dimethyl-[1,1′-biphenyl]-3-yl)methoxy)-2-(((oxazol-5-ylmethyl)amino)methyl)phenoxy)methyl)nicotinonitrile] was 2.5 nM. Turning to `CCc1csc(CNCc2cc(Cl)c(OCc3cccc(-c4cccc(OCCCN5CC[C@@H](O)C5)c4C)c3C)cc2OCc2cncc(C#N)c2)n1` [Example 2548, (R)-5-((4-chloro-2-((((4-ethylthiazol-2-yl)methyl)amino)methyl)-5-((3′-(3-(3-hydroxypyrrolidin-1-yl)propoxy)-2,2′-dimethyl-[1,1′-biphenyl]-3-yl)methoxy)phenoxy)methyl)nicotinonitrile], the IC50 is less than 0.038 nM.
